{
  "source": "ChEMBL document CHEMBL1138746",
  "about": "“Indolebutylamines as selective 5-HT(1A) agonists” (J Med Chem, 2004)",
  "key": {"[1]": {"experiment": "Inhibition of hydroxytryptamine 1D receptor"}, "[2]": {"experiment": "Inhibition of hydroxytryptamine 2A receptor"}, "[3]": {"biological_target": "T1, Adrenergic receptor alpha-2 (Homo sapiens, UniProt P08913+P18825+P18089)", "T1 sequence (P08913 whole entry)": "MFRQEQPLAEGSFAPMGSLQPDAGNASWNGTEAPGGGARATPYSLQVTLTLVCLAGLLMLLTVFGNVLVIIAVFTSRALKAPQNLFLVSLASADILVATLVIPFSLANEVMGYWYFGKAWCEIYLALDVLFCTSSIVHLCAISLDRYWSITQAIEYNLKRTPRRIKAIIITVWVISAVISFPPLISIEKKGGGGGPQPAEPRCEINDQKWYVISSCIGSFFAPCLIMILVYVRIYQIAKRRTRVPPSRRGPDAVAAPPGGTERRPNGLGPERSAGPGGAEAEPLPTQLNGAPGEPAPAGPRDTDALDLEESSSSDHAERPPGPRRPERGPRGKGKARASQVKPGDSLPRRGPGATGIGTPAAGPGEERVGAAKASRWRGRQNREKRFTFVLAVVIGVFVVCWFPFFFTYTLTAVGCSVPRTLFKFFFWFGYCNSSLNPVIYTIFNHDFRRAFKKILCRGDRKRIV", "T1 sequence (P18825 whole entry)": "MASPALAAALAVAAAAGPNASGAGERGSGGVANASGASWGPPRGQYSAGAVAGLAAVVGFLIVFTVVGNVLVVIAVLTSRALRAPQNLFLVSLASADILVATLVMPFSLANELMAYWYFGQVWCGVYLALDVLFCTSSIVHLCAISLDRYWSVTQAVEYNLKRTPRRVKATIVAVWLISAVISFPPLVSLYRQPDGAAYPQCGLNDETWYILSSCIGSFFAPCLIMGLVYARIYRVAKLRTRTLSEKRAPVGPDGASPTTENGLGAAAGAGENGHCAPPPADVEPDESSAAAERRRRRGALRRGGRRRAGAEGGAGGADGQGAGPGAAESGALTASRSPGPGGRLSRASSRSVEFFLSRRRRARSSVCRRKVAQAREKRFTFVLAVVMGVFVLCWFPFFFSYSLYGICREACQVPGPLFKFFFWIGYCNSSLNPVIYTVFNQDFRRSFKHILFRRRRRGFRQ", "T1 sequence (P18089 whole entry)": "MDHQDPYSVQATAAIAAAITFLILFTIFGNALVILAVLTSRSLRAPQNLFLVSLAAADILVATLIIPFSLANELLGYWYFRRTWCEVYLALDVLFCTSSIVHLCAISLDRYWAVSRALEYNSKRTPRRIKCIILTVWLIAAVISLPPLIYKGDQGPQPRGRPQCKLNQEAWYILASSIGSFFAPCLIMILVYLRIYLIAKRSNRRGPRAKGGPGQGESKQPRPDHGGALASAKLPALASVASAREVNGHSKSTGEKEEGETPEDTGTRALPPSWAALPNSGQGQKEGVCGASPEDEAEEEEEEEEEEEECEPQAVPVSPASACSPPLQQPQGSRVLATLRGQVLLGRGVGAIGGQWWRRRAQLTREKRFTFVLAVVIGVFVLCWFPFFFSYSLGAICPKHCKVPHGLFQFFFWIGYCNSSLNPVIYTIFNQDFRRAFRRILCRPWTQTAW", "experiment": "Inhibition of Alpha-2 adrenergic receptor", "type": "protein assay"}, "[4]": {"experiment": "Inhibition of Histamine H1 receptor"}, "[5]": {"experiment": "Inhibition of hydroxytryptamine 2C receptor"}},
  "data": [
    {"smiles": "O=C1c2ccccc2S(=O)(=O)N1CCCCN1CCN(c2ncccn2)CC1", "note": "[IPSAPIRONE]", "values": [
      {"measurement": "IC50", "setting": "[1]", "value": 3000, "unit": "nM"},
      {"measurement": "IC50", "setting": "[2]", "value": 2600, "unit": "nM"},
      {"measurement": "IC50", "setting": "[3]", "value": 1000, "unit": "nM"},
      {"measurement": "IC50", "setting": "[4]", "value": 24, "unit": "nM"},
      {"measurement": "IC50", "setting": "[5]", "value": "> 1000", "unit": "nM"}
    ]}
  ]
}
